Values after ≈ are worked out from the molar mass of the structure shown. Values belong to the molecule of their own block, whether it stands above or below them.
Assays:
Assay in all cases: ≥ marks a high value that may be exact or a test limit, other limits are often not marked, values filed in µg/mL are converted to µM
[1] = tested on: Escherichia coli ATCC 25922
[2] = tested on: Candida albicans ATCC 10231
[3] = tested on: Nocardia asteroides 201118
[4] = tested on: Enterococcus faecium 091299
[5] = tested on: Enterococcus faecalis 981
[6] = tested on: Enterobacter cloacae CGMCC 1.57
[7] = tested on: Candida glabrata 090902
[8] = tested on: Psychrobacter faecalis X29
[9] = tested on: Staphylococcus aureus ATCC 25923
[10] = tested on: Klebsiella pneumoniae 08040724
[11] = tested on: Pseudomonas aeruginosa 0108
[12] = tested on: Pseudomonas aeruginosa CGMCC 1.860
[13] = tested on: Staphylococcus aureus A170
[14] = tested on: Staphylococcus epidermidis
[15] = tested on: Escherichia coli
[16] = tested on: Salmonella typhimurium
[17] = tested on: Vibrio fluvialis
[18] = tested on: Vibrio parahaemolyticus
[19] = tested on: Staphylococcus aureus
[20] = tested on: Vibrio alginolyticus
[21] = tested on: Vibrio anguillarum

MIC [1]: 100 µM (≈ 249 µg/mL)
MIC [2]: 50 µM (≈ 125 µg/mL)
MIC [3]: 3.1 µM (≈ 7.73 µg/mL)
MIC [4]: ≥ 100 µM
MIC [5]: 3.1 µM (≈ 7.73 µg/mL)
MIC [6]: ≥ 100 µM
MIC [7]: 6.3 µM (≈ 15.7 µg/mL)
MIC [8]: 25 µM (≈ 62.3 µg/mL)
MIC [9]: 6.3 µM (≈ 15.7 µg/mL)
MIC [10]: ≥ 100 µM
SMILES: CC[C@H](C)[C@H](NC(=O)CNC(=O)[C@@H](NC(=O)[C@H](C)NC(=O)[C@H](C)NC(=O)[C@H](CCCCN)NC(=O)[C@@H](NC(=O)[C@H](CC(C)C)NC(=O)CNC(=O)[C@@H]1CCCN1C(=O)[C@H](CC(C)C)NC(=O)[C@@H](N)Cc1ccccc1)[C@@H](C)CC)C(C)C)C(=O)NCC(=O)N[C@@H](CO)C(=O)N[C@H](C(=O)N[C@H](C(=O)N[C@@H](Cc1ccccc1)C(=O)N[C@H]1CSSC[C@@H](C(=O)O)NC(=O)[C@H](CCCCN)NC(=O)[C@H](CCCCN)NC(=O)[C@H](CO)NC(=O)[C@H]([C@@H](C)CC)NC(=O)[C@H](CCCCN)NC1=O)[C@@H](C)CC)[C@@H](C)O [FLPGLIKAAVGIGSTIFCKISKKC]

MIC [11]: 12.5 µM (≈ 20.3 µg/mL)
MIC [12]: 6.25 µM (≈ 10.2 µg/mL)
SMILES: CC[C@H](C)[C@H](N)C(=O)N[C@@H](CCCCN)C(=O)N[C@@H](CCCCN)C(=O)N[C@H](C(=O)N[C@@H](Cc1c[nH]c2ccccc12)C(=O)N[C@@H](CO)C(=O)N[C@@H](CCCCN)C(=O)N[C@H](C(=O)N[C@@H](CCCCN)C(=O)N[C@@H](CCCCN)C(=O)N[C@@H](CC(C)C)C(=O)N[C@@H](CC(C)C)C(=O)N[C@@H](CCCCN)C(N)=O)[C@@H](C)CC)[C@@H](C)CC [IKKIWSKIKKLLK]

MIC [13]: 17.9 µM (≈ 25 µg/mL)
MIC [14]: 21.5 µM (≈ 30 µg/mL)
MIC [15]: > 71.8 µM
MIC [16]: ≥ 71.8 µM
SMILES: CC[C@H](C)[C@H](NC(=O)[C@@H]1CCCN1C(=O)[C@H](CC(C)C)NC(=O)[C@@H](N)CC(C)C)C(=O)N[C@H](C(=O)NCC(=O)N[C@@H](CC(N)=O)C(=O)N[C@@H](CC(C)C)C(=O)N[C@@H](CC(C)C)C(=O)N[C@@H](CCCCN)C(=O)N[C@@H](CO)C(=O)N[C@@H](CC(C)C)C(=O)N[C@@H](CC(C)C)C(=O)O)C(C)C [LLPIVGNLLKSLL]

MIC [17]: 25 µM (≈ 75 µg/mL)
MIC [15]: 50 µM (≈ 150 µg/mL)
MIC [19]: 50 µM (≈ 150 µg/mL)
MIC [20]: ≥ 50 µM
MIC [21]: ≥ 50 µM
SMILES: CSCC[C@H](NC(=O)[C@H](CO)NC(=O)[C@H](CC(C)C)NC(=O)[C@H](Cc1cnc[nH]1)NC(=O)[C@H](CO)NC(=O)[C@@H](N)CCC(N)=O)C(=O)N[C@H]1CSSC[C@@H](C(=O)N[C@@H](CCCCN)C(=O)N[C@@H](Cc2ccccc2)C(=O)O)NC(=O)[C@@H]2CSSC[C@@H]3NC(=O)[C@@H]4CSSC[C@H](NC(=O)[C@H](Cc5ccc(O)cc5)NC(=O)[C@H](CCCN=C(N)N)NC1=O)C(=O)N[C@@H](CSSC[C@H](NC(=O)CNC(=O)[C@H](CCCCN)NC(=O)[C@H](CC(N)=O)NC(=O)[C@H](CC(N)=O)NC(=O)[C@H](CCCN=C(N)N)NC3=O)C(=O)NCC(=O)N[C@@H](Cc1ccccc1)C(=O)N2)C(=O)N[C@@H](CC(N)=O)C(=O)N4 [QSHLSMCRYCCNCCRNNKGCGFCCKF]
MIC [18]: ≥ 50 µM
